Experimental data taken from US20110039277A1, “Methods of Labeling Proteins” (priority 2008, published 2011).
“Also recorded” adds a separate entry of the source.

Assays:
dopaminergic neurons = test: Tyrosine hydroxylase, transferrin and oxidized thiol imaging in dopaminergic neurons treated with rotenone; assay type: cell-based; details: cells treated with rotenone vs control
[1] = system: human neuroblastoma cells; test: Fluorescent labeling of protein carbonyls (FITC-hydrazide) in rotenone-treated cells; assay type: cell-based; details: 50 nM rotenone, 24 hours, vs vehicle-treated cells
Protocol: Cells are fixed in cold methanol for 10 minutes at −20° C. Paraformaldehyde and other […] group-containing (and therefore carbonyl group-containing) fixatives should be avoided. The method can be successfully applied to tissues as well.
Carbonyls are labeled with fluorescein-conjugated hydrazide (FITC-NN, FIG. 1, Molecular Probes, cat #F-121). F121 is prepared fresh in dimethyl-formamide. As the reaction between the hydrazine and the carbonyls occurs in acidic environment, the labeling is carried out in 50 mM sodium acetate (pH 4). FITC-NN is used 2 microM final; incubation is carried on 2 hours at room temperature.
Samples are washed in phosphate buffer solution (PBS) for 5 minutes; this step is repeated three times.
From this step onward, a classical immunohistochemistry staining can be performed to detect proteins of interest.
Images are acquired with a laser scanning confocal microscope.

Hsp60 = test: FRET by acceptor photobleaching between FITC-NN carbonyl label and Cy3 anti-Hsp60 antibody in cells; assay type: cell-based; details: rotenone-treated cells
Source text: Anti-Hsp60 (Stressgen, used at 1:500) was conjugated with Cy3. The procedure can be carried out in a 96-well plate, which can be analyzed with a micro-plate spectrofluorometer. FRET between FITC-NN and a Cy3-labeled specific antibody can be studied to determine if the two fluorophores are in close proximity (<50 Å) and therefore if the protein of interest is oxidized. […] First, the acceptor fluorophore is photobleached over four cycles. In FIG. 3, Cy3 was the acceptor fluorophore and the protein of interest was Hsp60, where Cy3 conjugated with anti-Hsp60 antibody. Second, the emission of the acceptor fluorophore and of the donor fluorophore are determined and compared. If a significant increase in the donor emission is observed after photobleaching the acceptor fluorophore, then the two fluorophores are determined to be in close proximity. […] Therefore, the two fluorophores are in close proximity and indicate that the protein of interest, here Hsp60, is oxidized.

[2] = system: mitochondrial proteins containing oxidized thiols; test: Thiol-sepharose affinity purification of oxidized mitochondrial proteins from brain regions of rotenone-treated rats; assay type: in vivo, Lewis rats; details: rotenone animals vs control
Source text: Preparation of affinity resin. Activated thiol-sepharose resin 4B (Sigma, St. Louis, Mo., USA) was used in previous studies to purify thiol-containing proteins (Egorov, T. A.; Svenson, A.; Ryden, L.; Carlsson, J. A rapid and specific method for isolation of thiol-containing peptides from large proteins by thiol-disulfide exchange on a solid support. Proc Natl Acad Sci USA 72:3029-3033; 1975); the resin extent of binding was 1 micromol of thiols per mL of medium. The resin rehydrated in milliQ-grade distilled water, 30 minutes, gently shaking at 4° C. […]
In the first technique (FIG. 20), a starting sample (e.g., purified mitochondria from the ventral midbrain of control and rotenone-treated rats) is homogenized and then free thiols are alkylated. […] At this point, the sample can be run over a thiol affinity column and the eluate can be analyzed by SDS-PAGE and Coomassie staining. In an alternative strategy, after the reduction the sample can be reacted with ICAT (isotope coded affinity tag) reagents for mass spectrometry (Gygi, S P, Rist, B, Gerber, S A, Turecek, F, Gelb, M H and Aebersold, R, (1999) Quantitative analysis of complex protein mixtures using isotope-coded affinity tags. Nat Biotechnol 17: 994-9).

substantia nigra = test: Imaging of carbonyls in substantia nigra of rotenone-treated animals; assay type: in vivo; details: rotenone-treated animal vs control animal
Source text: To detect carbonyls in fixed slices and perform microscopy studies, fluorescein-conjugated hydrazine is used (FITC-hydrazine, please see FIG. 19). As a positive control, carbonyl formation is induced by metal-catalyzed oxidation, treating the samples with iron (Fe^3+) and ascorbate (Amici, A, Levine, R L, Tsai, L and Stadtman, E R, (1989) Conversion of amino acid residues in proteins and amino acid homopolymers to carbonyl derivatives by metal-catalyzed oxidation reactions. J Biol Chem 264: 3341-6 and Halliwell, B and Gutteridge, J M, (1990) Role of free radicals and catalytic metal ions in human disease: an overview. Methods Enzymol 186: 1-85). In the confocal studies, a negative control can be performed preincubating the fixed slices with an excess of DNPH.
Protein carbonyls. Another oxidative modification of proteins is carbonyl formation. Typically, carbonyls are assayed by reacting protein homogenates with hydrazine compounds (e.g., dinitrophenylhydrazine; DNPH) and then measuring the reaction product spectrophotometrically, or with antibody-based techniques. We have used a fluorescent hydrazine compound to directly label carbonyls (FIG. 19). As with thiol labeling, this technique is amenable to FRET so that candidate proteins can be examined for carbonyl content and changes therein in pesticide intoxication.

[3] = system: dopaminergic neurons of the substantia nigra; test: Histological labeling of oxidized thiols in substantia nigra of rotenone-treated rats; assay type: in vivo, Lewis rats; details: chronic rotenone treatment vs control animal
Protocol: (§1) Histological labeling of oxidized thiols. Brains were fixed in 4% paraformaldehyde and processed as described (Betarbet, R.; Sherer, T. B.; MacKenzie, G.; Garcia-Osuna, M.; Panov, A. V.; Greenamyre, J. T. Chronic systemic pesticide exposure reproduces features of Parkinson's disease. Nat Neurosci 3:1301-1306; 2000). After cutting with a freezing microtome, sections were treated immediately in alkylating buffer (100 mM IAM, 100 mM NEM, TrisHCl, pH 6.8) to block free thiols. For cell culture studies, cells were seeded and cultured on coverslips, then fixed in 4% paraformaldehyde, 0.02% Triton-X100 supplemented with 100 mM IAM, 100 mM NEM to block free thiols. After three washes in PBS—10 minutes at room temperature—disulfides were reduced with 25 mM TCEP in PBS for 20 minutes. TCEP was omitted in the control reaction. The samples were labeled with CPM (0.5 mM final) in TrisHCl (0.1 M, pH 6.8) and then washed three times, for 10 minutes, in PBS.
Following the thiol labeling, immunohistochemistry was performed according to standard procedures. Briefly, after a blocking step in 10% serum, samples were incubated over-night with primary antibody (tyrosine hydroxylase, Mab318, Chemicon, Temecula, Calif., 1:2000; OX42, MCA 275G AbD Serotec, Oxford, UK, 1:150; GFAP, Mab 3402, Chemicon, Temecula, Calif., 1:1000). Fluorescently labeled secondary antibodies were used for detection. […]

transferrin = test: Reducing and non-reducing Western blots of transferrin in substantia nigra; assay type: in vivo; details: chronic rotenone treatment vs control animal
Source text: In the lower panel, left and right, a loading control (39 kDa subunit of mitochondrial complex I) ensures that the initial amount of protein was the equal for all the lanes.

thioredoxin-1 (trx-1) [4] = test: Redox western blot (10 kDa PEG-maleimide) of thioredoxin-1 in cells; assay type: cell-based; details: low millimolar concentrations of tBH
Protocol: Western blot analysis to detect proteins with oxidized cysteines. Cells were lysed in alkylating buffer (0.1M TrisHCl pH 6.8, 1% SDS, 100 mM IAM, 100 mM NEM). The lysate was sonicated on ice to disrupt high molecular weight DNA and incubated 30 minutes at room temperature to allow total alkylation of free Cys residues. 200 μg of alkylated proteins were precipitated with 5 volumes of ice-cold acetone and resuspended in 50 microliters of Tris-SDS buffer (0.1M TrisHCl, pH 7.4, 1% SDS). Disulfides were reduced by adding TCEP 5 mM final concentration. The samples were incubated 20 minutes at room temperature to allow complete reduction of disulfides to thiols. TCEP was removed with Micro Bio-spin Chromatography columns 6 (BIORAD, Hercules, Calif.). After the filtration step, the samples were in about 50 μL of 10 mM TrisHCl pH 7.4 (volume was adjusted to 50 μL as necessary). SDS was added to a 1% final concentration.
To label the previously oxidized (and now reduced) cysteines, polyethylene-glycol-conjugated maleimide (molecular weight 10 kDa, SunBio, Orinda, Calif.) was added to 50 micrograms of proteins, 1 mM final concentration, from a 10 mM stock in Tris-SDS buffer. After 1 hour incubation at room temperature, samples were precipitated with ice cold acetone and resuspended in 50 μL of SDS electrophoresis loading buffer. 10 μL (about 10 μg) were used for western blot analysis. […]

[5] = system: SH-SY5Y human neuroblastoma cells; test: Histochemical detection of oxidized thiols (disulfides) with CPM in cells; assay type: cell-based; details: tBH 1 mM vs vehicle control
Protocol: as §1
Images were acquired using a laser scanning confocal microscope. The microscope was equipped with a spectral detector technology that provides precise wavelength separation of the emitted light, preventing light leakage between different fluorophores. The following detection ranges were used for each fluorophore: 450 nm-480 nm for UV probes; 515 nm-535 nm for Alexa488; 560 nm-574 nm for Cy3. […]

thioredoxin-1 (trx-1) [6] = test: FRET between thiol-bound CPM and Alexa488-labeled trx-1 antibody in cells; assay type: cell-based; details: tBH-treated cells vs baseline
Protocol: as §1, with “The samples were labeled with CPM (0.5 mM final) in TrisHCl (0.1 M, pH 6.8) and then washed three times, for 10 minutes, in PBS.” left out
Direct FRET was detected by reading the acceptor emission (FITC derivative conjugated antibody) at 520 nm while exciting the donor (CPM) with the 405 nm laser. Alternatively, FRET was detected by acquiring the donor (CPM) emission before and after photobleaching of the acceptor fluorophore (Alexa488) with the 488 nm laser. FRET efficiency (Feff) was calculated by the confocal software (version 1.5) according to the equation Feff=1−(empre/empost), where Feff=FRET efficiency, empre=donor emission prebleaching, empost=donor emission post bleaching.

Structure (SMILES): C=C(C)[C@H]1Cc2c(ccc3c2O[C@@H]2COc4cc(OC)c(OC)cc4[C@@H]2C3=O)O1 [rotenone]
- transferrin (trf) level, colocalized with oxidized thiols by FRET (dopaminergic neurons): accumulation of transferrin
- carbonyls (green fluorescence) [1]: detectable increase; also recorded: large increase in carbonyls
- FITC (donor) emission after photobleaching of Cy3 acceptor; indicates Hsp60 is oxidized (Hsp60): significant increase in FITC emission
- oxidized mitochondrial proteins eluted from thiol affinity chromatography, striatum ([2]; striata): No major differences
- oxidized mitochondrial proteins eluted from thiol affinity chromatography, substantia nigra ([2]; substantia nigra (ventral midbrain)): marked increase in thiol oxidation; also recorded: dramatic increase in oxidized proteins; also recorded: striking increase of oxidized proteins
- carbonyls in substantia nigra (substantia nigra): marked increase in carbonyls
- oxidized thiols in nigrostriatal dopaminergic (TH-positive) neurons [3]: remarkable and very selective increase in oxidized thiols; also recorded: marked increase in oxidized thiols
- oxidized transferrin form in non-reducing gel (transferrin): higher molecular weight form

Structure (SMILES): CC(C)(C)OO [tBH, tert-butyl-hydroperoxide]
- thiol oxidation (disulfide formation) in trx-1 by redox western blot (thioredoxin-1 (trx-1) [4]): quickly induced the formation of disulfides in trx-1; also recorded: induced thiol oxidation in thioredoxin-1
- oxidized thiols (disulfides) labeling [5]: remarkable increase in disulfides; also recorded: dramatic increase of thiol labeling
- FRET between CPM and Alexa488 trx-1 antibody (thiol oxidation of Trx-1) (thioredoxin-1 (trx-1) [6]): clear increase in the signal; also recorded: marked increase in direct FRET
